Laboratory results: the supplement of paper PMC10627819

Assays:
Assay in all cases: fitness (endpoint OD595 vs no drug) (fraction); higher = more growth
S. pneumoniae D39V = test system: S. pneumoniae D39V
In short: (§1)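 At 37 °C, bacteria in TSB, LB Lennox or CY were grown in 384-well plates from a starting OD595 of 0.01. OD595 was measured every 30 min for 14 h, with the first reading used as background. Fitness is the optical density at the switch to stationary phase as a fraction of the robust mean of no-drug control wells, capped at 1.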

S. aureus Newman = test system: S. aureus Newman
In short: as §1

B. subtilis 168 = conditions: main component drawn
In short: as §1
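Note: OD595 on entry to stationary phase over no-drug wells; at most 1.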

CO[C@@]12[C@H](COC(N)=O)C3=C(C(=O)C(C)=C(N)C3=O)N1C[C@@H]1N[C@@H]12 [Mitomycin C] + O=C1CN(/N=C/c2ccc([N+](=O)[O-])o2)C(=O)N1 [Nitrofurantoin]
fitness, S. pneumoniae D39V
Conditions	first compound 0.001075 µg/mL	first compound 0.002 µg/mL	first compound 0.00215 µg/mL	first compound 0.004 µg/mL	first compound 0.0043 µg/mL	first compound 0.008 µg/mL
partner 1.285 µg/mL	–	0.896	–	0.74	–	0.588
partner 2 µg/mL	0.889	–	0.883	–	0.759	–
partner 2.57 µg/mL	–	0.839	–	0.765	–	0.535
partner 4 µg/mL	0.866	–	0.835	–	0.679	–
partner 8 µg/mL	0.803	–	0.755	–	0.554	–

S. pneumoniae D39V, partner 5.14 µg/mL, one replicate
Conditions	fitness
first compound 0.002 µg/mL	0.723
first compound 0.004 µg/mL	0.613
first compound 0.008 µg/mL	0.419

CO[C@@]12[C@H](COC(N)=O)C3=C(C(=O)C(C)=C(N)C3=O)N1C[C@@H]1N[C@@H]12 [Mitomycin C] + C/C(=C\C(=O)OCCCCCCCCC(=O)O)C[C@@H]1OC[C@H](C[C@@H]2O[C@H]2[C@@H](C)[C@H](C)O)[C@@H](O)[C@H]1O [Pseudomonic acid]
fitness, S. pneumoniae D39V
Conditions	first compound 0.001075 µg/mL	first compound 0.002 µg/mL	first compound 0.00215 µg/mL	first compound 0.004 µg/mL	first compound 0.0043 µg/mL	first compound 0.008 µg/mL
partner 0.03 µg/mL	0.914	0.855	0.919	0.741	0.818	0.612
partner 0.06 µg/mL	0.806	0.725	0.795	0.64	0.731	0.523
partner 0.12 µg/mL	0.587	0.549	0.584	0.498	0.51	0.322

fitness, S. aureus Newman, one replicate
Conditions	first compound 0.0156 µg/mL	first compound 0.0312 µg/mL	first compound 0.0625 µg/mL
partner 0.0313 µg/mL	0.0474	0.0196	0.0148
partner 0.0625 µg/mL	0.0185	0.0244	0.0093
partner 0.125 µg/mL	0.0351	0.0217	0.029

CC[C@H](C)[C@H](N)C1=N[C@H](C(=O)N[C@@H](CC(C)C)C(=O)N[C@H](CCC(=O)O)C(=O)N[C@H](C(=O)N[C@H]2CCCCNC(=O)[C@H](CC(N)=O)NC(=O)[C@@H](CC(=O)O)NC(=O)[C@H](Cc3cnc[nH]3)NC(=O)[C@@H](Cc3ccccc3)NC(=O)[C@H]([C@@H](C)CC)NC(=O)[C@@H](CCCN)NC2=O)[C@@H](C)CC)CS1 [Bacitracin] + CO[C@@]12[C@H](COC(N)=O)C3=C(C(=O)C(C)=C(N)C3=O)N1C[C@@H]1N[C@@H]12 [Mitomycin C]
fitness, S. aureus Newman, main component drawn
Conditions	first compound 18.75 µg/mL	first compound 37.5 µg/mL	first compound 75 µg/mL
partner 0.0156 µg/mL	0.56	–	0.0457
partner 0.0312 µg/mL	0.419	0.0317	0.0152
partner 0.0625 µg/mL	0.229	0.0144	0

CC[C@H](C)[C@H](N)C1=N[C@H](C(=O)N[C@@H](CC(C)C)C(=O)N[C@H](CCC(=O)O)C(=O)N[C@H](C(=O)N[C@H]2CCCCNC(=O)[C@H](CC(N)=O)NC(=O)[C@@H](CC(=O)O)NC(=O)[C@H](Cc3cnc[nH]3)NC(=O)[C@@H](Cc3ccccc3)NC(=O)[C@H]([C@@H](C)CC)NC(=O)[C@@H](CCCN)NC2=O)[C@@H](C)CC)CS1 [Bacitracin] + N[C@@H]1CONC1=O [Cycloserine D]
fitness, B. subtilis 168
Conditions	first compound 37.5 µg/mL	first compound 75 µg/mL	first compound 150 µg/mL
partner 0.125 µg/mL	0.893	0.89	0.737
partner 0.25 µg/mL	0.894	0.898	–
partner 0.5 µg/mL	0.858	0.858	–

fitness, S. aureus Newman, main component drawn
Conditions	first compound 18.75 µg/mL	first compound 37.5 µg/mL	first compound 75 µg/mL
partner 0.375 µg/mL	0.761	0.282	0.0299
partner 0.75 µg/mL	0.761	0.28	0.0202
partner 1.5 µg/mL	0.74	0.202	0.0116

CO[C@@]12[C@H](COC(N)=O)C3=C(C(=O)C(C)=C(N)C3=O)N1C[C@@H]1N[C@@H]12 [Mitomycin C] + CCC(C)C1C(=O)NC(=C)C(=O)NC(C(=O)NC(CSCC(C(=O)N1)NC(=O)/C(=C/C)/NC(=O)C(C(C)CC)N)C(=O)NC2C(SCC(NC(=O)CNC(=O)C3CCCN3C2=O)C(=O)NC(CCCCN)C(=O)NC4C(SCC(NC(=O)CNC(=O)C(NC(=O)C(NC(=O)C(NC(=O)CNC4=O)C)CC(C)C)CCSC)C(=O)NC(CC(=O)N)C(=O)NC(CCSC)C(=O)NC(CCCCN)C(=O)NC5C(SCC6C(=O)NC(C(=O)NC(CSC(C(C(=O)N6)NC(=O)C(NC5=O)C)C)C(=O)NC(CO)C(=O)NC(C(C)CC)C(=O)NC(CC7=CN=CN7)C(=O)NC(C(C)C)C(=O)NC(=C)C(=O)NC(CCCCN)C(=O)O)CC8=CN=CN8)C)C)C)CC(C)C [Nisin]
fitness, S. pneumoniae D39V, main component drawn
Conditions	first compound 0.001075 µg/mL	first compound 0.002 µg/mL	first compound 0.00215 µg/mL	first compound 0.004 µg/mL	first compound 0.0043 µg/mL	first compound 0.008 µg/mL
partner 0.4275 µg/mL	–	0.982	–	0.838	–	0.636
partner 0.855 µg/mL	–	0.943	–	0.844	–	0.538
partner 1.6 µg/mL	0.0489	–	0.0715	–	0.0313	–
partner 1.71 µg/mL	–	0.0782	–	0.0797	–	0.0351
partner 3.2 µg/mL	0.0397	–	0.038	–	0.0122	–
partner 6.4 µg/mL	0.0247	–	0.0066	–	0.0194	–

CC[C@H](C)[C@H](N)C1=N[C@H](C(=O)N[C@@H](CC(C)C)C(=O)N[C@H](CCC(=O)O)C(=O)N[C@H](C(=O)N[C@H]2CCCCNC(=O)[C@H](CC(N)=O)NC(=O)[C@@H](CC(=O)O)NC(=O)[C@H](Cc3cnc[nH]3)NC(=O)[C@@H](Cc3ccccc3)NC(=O)[C@H]([C@@H](C)CC)NC(=O)[C@@H](CCCN)NC2=O)[C@@H](C)CC)CS1 [Bacitracin] + O=C(O)[C@H]1/C(=C/CO)O[C@@H]2CC(=O)N21 [Clavulanic acid]
fitness, B. subtilis 168
Conditions	partner 1.5 µg/mL	partner 3 µg/mL	partner 6 µg/mL
first compound 37.5 µg/mL	0.906	0.86	0.795
first compound 75 µg/mL	0.915	0.838	0.734

fitness, S. aureus Newman, one replicate, main component drawn
Conditions	first compound 18.75 µg/mL	first compound 37.5 µg/mL	first compound 75 µg/mL
partner 0.03125 µg/mL	0.682	0.298	0.0064
partner 0.0625 µg/mL	0.673	0.251	0.0152
partner 0.125 µg/mL	0.686	0.219	0.0264

CC[C@H](C)[C@H](N)C1=N[C@H](C(=O)N[C@@H](CC(C)C)C(=O)N[C@H](CCC(=O)O)C(=O)N[C@H](C(=O)N[C@H]2CCCCNC(=O)[C@H](CC(N)=O)NC(=O)[C@@H](CC(=O)O)NC(=O)[C@H](Cc3cnc[nH]3)NC(=O)[C@@H](Cc3ccccc3)NC(=O)[C@H]([C@@H](C)CC)NC(=O)[C@@H](CCCN)NC2=O)[C@@H](C)CC)CS1 [Bacitracin] + CN(C)[C@@H]1C(O)=C(C(N)=O)C(=O)[C@@]2(O)C(O)=C3C(=O)c4c(O)ccc(Cl)c4[C@@](C)(O)[C@H]3C[C@@H]12 [Chlortetracycline]
fitness, B. subtilis 168
Conditions	first compound 37.5 µg/mL	first compound 75 µg/mL	first compound 150 µg/mL
partner 0.0475 µg/mL	0.865	0.856	0.723
partner 0.095 µg/mL	0.753	0.68	0.497
partner 0.19 µg/mL	–	–	0.0687

CC[C@H](C)[C@H](N)C1=N[C@H](C(=O)N[C@@H](CC(C)C)C(=O)N[C@H](CCC(=O)O)C(=O)N[C@H](C(=O)N[C@H]2CCCCNC(=O)[C@H](CC(N)=O)NC(=O)[C@@H](CC(=O)O)NC(=O)[C@H](Cc3cnc[nH]3)NC(=O)[C@@H](Cc3ccccc3)NC(=O)[C@H]([C@@H](C)CC)NC(=O)[C@@H](CCCN)NC2=O)[C@@H](C)CC)CS1 [Bacitracin] + CC1(C)S[C@@H]2[C@H](NC(=O)Cc3ccccc3)C(=O)N2[C@H]1C(=O)O [Penicillin G]
fitness, S. aureus Newman, main component drawn
Conditions	first compound 18.75 µg/mL	first compound 37.5 µg/mL	first compound 75 µg/mL
partner 0.0195 µg/mL	0.642	0.35	0.018
partner 0.039 µg/mL	0.698	0.2	0.0199
partner 0.078 µg/mL	0.69	–	0.0358
